In patent US20260242390A1, “TOTAL SYNTHESES OF PORTIMINE A AND ANALOGUES THEREOF AS SMALL MOLECULE MODULATORS OF NMD3” (priority 2023, published 2026):

How the values were obtained:
[1] = system: Jurkat cells; test: Initial SAR: activity of PAL functionalized PTMA analogs; type: cell-based, human; details: in the concentrate range
Description: FIG. 3. Initial SAR studies: Assessing activity of PAL functionalized PTMA analogs. […] (A) PA and Ph-PA show less toxic to healthy PBMCs compared to Jurkat cells. […] (B) Immunoblot of caspase-3 in Jurkat and PBMCs with indicated conditions.
• 1) Portimine A and its functional analogs show stereo-selective acute toxicity in cancer cells (FIG. 1). […] (B) Structure of portimine related analogs: phenyl-portimine A (Ph-PA, 36) and epi-portimine A (ePA, 38). Structure of fully functionalized portimine A-based epimeric probe pair: portimine A-diazirine-alkyne (PA-DA, 35-2) and epi-portimine A-diazirine-alkyne (ePA-DA, 35-1). (C) Cell viability analysis of portimine A and analogs. Jurkat cells were treated with increasing concentrations of portimine A and analogs for 24 hours. All presented data as mean of biological replicated experiments (n=3). […] Jurkat cells were treated with portimine A or analogs for 12 hours at 10 nM. […] Structurally related negative control ePA and PB are non-toxic in all cell types in the current concentrate range. PBMCs (25k per well), Jurkat (10k per well). […] Cell cycle analysis in Jurkat cells (FIG. 2). Jurkat cells were treated with 10 nM of indicated compounds for 24 hours, and propodium iodide was used to identify different stages of cells by flow cytometry. […] (A) PA and Ph-PA show less toxic to healthy PBMCs compared to Jurkat cells. […] (B) Immunoblot of caspase-3 in Jurkat and PBMCs with indicated conditions. […] (A) Pharmacokinetic studies of mouse intraperitoneal (i.p.) and oral (p.o.) administration for portimine (n=3). […] Impact of PA [0.3 or 1 mg/kg intraperitoneally] on MC38 tumor growth in WT mice (n=6). (C) Kaplan-Myer survival curve of WT MC38 tumor-bearing mice (n=6) after treatment with PA as described in (D). Mice were euthanized when tumor area exceeded 2000 mm^3. Statistical analysis was performed using ANOVA analysis followed by multiple comparisons test, * p≤0.05. Treatment condition: Jurkat (60 M per condition); PA-DA/ePA-DA concentration: 0.5 uM, PA or ePA: 5 uM; Incubate with probe with or without competitors (PA, ePA) for 30 min; UV irradiated for 20 min. (0.5 uM PA-DA add a no-UV condition), Standard pulldown & biotin-enrichment and western blot analysis (Elute condition: 2× sample buffer+500 uM biotin, boil for 20 mins); Primary antibody NMD3 (ProteinTech, 1:150), Actin (BioRad, 1:10000). […] Cell lysates were fractionated by sucrose gradient (5-50%) and each fraction were analyzed by western blot. eIF6 levels increase in 60S subunit fraction and decrease in ribosome-free fractions after PA treatment. […]

[2] = system: normal murine haematopoietic cells; details: cited from earlier work
[3] = system: human T-cell acute lymphoblastic leukaemia (T-ALL) cell lines; details: cited from earlier work

| Structure (SMILES) | activity of PAL functionalized PTMA analogs [1] | toxicity to normal murine haematopoietic cells [2] | apoptosis in a panel of 14 human T-ALL cell lines [3] |
| --- | --- | --- | --- |
| CC(=O)O[C@@H]1CC(C)[C@@H]2CC[C@@]3(C[C@@H](O)C4=NCC[C@@]45CCC(c4ccc(C(=O)NCCC6(CCC#N)N=N6)cc4)=C[C@@H]5[C@H](O3)C1=O)O2 (stereo partly drawn) [epi-PTMA-Ac-DA] | no activity |  |  |
| O=C(/C=C\n1cnc(-c2cc(C(F)(F)F)cc(C(F)(F)F)c2)n1)NNc1cnccn1 [KPT-330] |  | little toxicity | induced rapid apoptosis at low nanomolar concentrations |
